Measurements as given in patent US20150307938A1, “METHOD TO IDENTIFY A NOVEL CLASS OF IMMUNOLOGIC ADJUVANTS” (Lancell, L.L.C., priority 2011, published 2015).

Test system: skin
Experiment: Affymetrix microarray of skin, DBP-4 hr and analogs vs. untreated; gene selection by log-2 fold change, Wilcoxon, Kendall tau (Tables 8, 9)
Assay type: in vivo, mouse
Conditions: for Kendall: Kendall tau coefficient

CCCCOC(=O)c1ccccc1C(=O)OCCCC [DBP, dibutylphthalate]
DBP Expression: Socs2 (NM_001168655_at, DBP-4 hr): 8.92 | DBP Expression: Socs2 (NM_001168656_at, DBP-4 hr): 8.92 | DBP Expression: Socs2 (NM_001168657_at, DBP-4 hr): 8.92 | DBP Expression: Arid5a (NM_001172205_at, DBP-4 hr): 7.61 | DBP Expression: Arid5a (NM_001172206_at, DBP-4 hr): 7.61 | DBP Expression: Nfkb2 (NM_001177369_at, DBP-4 hr): 8.26 | DBP Expression: Nfkb2 (NM_001177370_at, DBP-4 hr): 8.26 | DBP Expression: Cd44 (NM_001177785_at, DBP-4 hr): 9.82 | DBP Expression: Cd44 (NM_001177786_at, DBP-4 hr): 9.82 | DBP Expression: Cd44 (NM_001177787_at, DBP-4 hr): 9.82 | DBP Expression: Smox (NM_001177833_at, DBP-4 hr): 8.18 | DBP Expression: Smox (NM_001177834_at, DBP-4 hr): 8.24 | DBP Expression: Smox (NM_001177835_at, DBP-4 hr): 8.44 | DBP Expression: Smox (NM_001177836_at, DBP-4 hr): 8.07 | DBP Expression: Smox (NM_001177837_at, DBP-4 hr): 8.07 | DBP Expression: Smox (NM_001177838_at, DBP-4 hr): 8.44 | DBP Expression: Smox (NM_001177839_at, DBP-4 hr): 8.07 | DBP Expression: Smox (NM_001177840_at, DBP-4 hr): 8.44 | DBP Expression: Pde4b (NM_001177980_at, DBP-4 hr): 8.96 | DBP Expression: Pde4b (NM_001177981_at, DBP-4 hr): 8.96 | DBP Expression: Pde4b (NM_001177982_at, DBP-4 hr): 8.96 | DBP Expression: 5730408K05Rik (NR_027866_at, DBP-4 hr): 8.14 | DBP Expression: Arid5a (NR_033310_at, DBP-4 hr): 7.61 | Wilcoxon (Socs2 NM_007706_at, DBP-4 hr vs. untreated): No | Kendall (Socs2 NM_007706_at): No | Wilcoxon (Socs3 NM_007707_at, DBP-4 hr vs. untreated): Yes | Kendall (Socs3 NM_007707_at): No | Wilcoxon (Timp1 NM_001044384_at, DBP-4 hr vs. untreated): Yes | Kendall (Timp1 NM_001044384_at): No | DBP Expression: LOC100504977 (XM_003085794_at, DBP-4 hr): 8.47 | Wilcoxon: 1810046J19Rik (gene 1810046J19Rik, NM_025559_at, DBP-4 hr vs. untreated): No | Kendall: 1810046J19Rik (gene 1810046J19Rik, NM_025559_at, gene expression vs. output): Yes | Wilcoxon: 4933434E20Rik (gene 4933434E20Rik, NM_025762_at, DBP-4 hr vs. untreated): No | Kendall: 4933434E20Rik (gene 4933434E20Rik, NM_025762_at, gene expression vs. output): Yes | Log2 Expression Level (gene #1 of Table 8): 6.82 | Log2 Expression Level (gene #2 of Table 8): 6.93 | Log2 Expression Level (gene #3 of Table 8): 9.82 | Log2 Expression Level (gene #4 of Table 8): 9.82 | Log2 Expression Level (gene #5 of Table 8): 7.53 | Log2 Expression Level (gene #6 of Table 8): 6.91 | Log2 Expression Level (gene #7 of Table 8): 6.26 | Log2 Expression Level (gene #8 of Table 8): 6.91 | Log2 Expression Level (gene #9 of Table 8): 6.91 | Log2 Expression Level (gene #10 of Table 8): 6.91 | Log2 Expression Level (gene #11 of Table 8): 6.26 | Log2 Expression Level (gene #12 of Table 8): 6.26 | Log2 Expression Level (gene #13 of Table 8): 6.26 | Log2 Expression Level (gene #14 of Table 8): 6.13 | Log2 Expression Level (gene #15 of Table 8): 6.13 | Log2 Expression Level (gene #16 of Table 8): 7.45 | Log2 Expression Level (gene #17 of Table 8): 9.48 | Log2 Expression Level (gene #18 of Table 8): 9.48 | Log2 Expression Level (gene #19 of Table 8): 9.61 | Log2 Expression Level (gene #20 of Table 8): 11.11 | Log2 Expression Level (gene #21 of Table 8): 9.27 | Log2 Expression Level (gene #22 of Table 8): 8.24 | Log2 Expression Level (gene #23 of Table 8): 6.89 | Log2 Expression Level (gene #24 of Table 8): 8.10 | Log2 Expression Level (gene #25 of Table 8): 8.10 | Log2 Expression Level (gene #26 of Table 8): 8.56 | Log2 Expression Level (gene #27 of Table 8): 8.56 | Log2 Expression Level (gene #28 of Table 8): 8.56 | Log2 Expression Level (gene #29 of Table 8): 7.22 | Log2 Expression Level (gene #30 of Table 8): 8.92 | Log2 Expression Level (gene #31 of Table 8): 8.92 | Log2 Expression Level (gene #32 of Table 8): 8.92 | Log2 Expression Level (gene #33 of Table 8): 6.54 | Log2 Expression Level (gene #34 of Table 8): 7.61 | Log2 Expression Level (gene #35 of Table 8): 7.61 | Log2 Expression Level (gene #36 of Table 8): 9.82 | Log2 Expression Level (gene #37 of Table 8): 9.82 | Log2 Expression Level (gene #38 of Table 8): 9.82 | Log2 Expression Level (gene #39 of Table 8): 8.18 | Log2 Expression Level (gene #40 of Table 8): 8.24 | Log2 Expression Level (gene #41 of Table 8): 8.44 | Log2 Expression Level (gene #42 of Table 8): 8.07 | Log2 Expression Level (gene #43 of Table 8): 8.07 | Log2 Expression Level (gene #44 of Table 8): 8.44 | Log2 Expression Level (gene #45 of Table 8): 8.07 | Log2 Expression Level (gene #46 of Table 8): 8.44 | Log2 Expression Level (gene #47 of Table 8): 8.96 | Log2 Expression Level (gene #48 of Table 8): 8.96 | Log2 Expression Level (gene #49 of Table 8): 8.96 | Log2 Expression Level (gene #50 of Table 8): 10.11 | Log2 Expression Level (gene #51 of Table 8): 8.84 | Log2 Expression Level (gene #52 of Table 8): 10.36 | Log2 Expression Level (gene #53 of Table 8): 8.58 | Log2 Expression Level (gene #54 of Table 8): 10.63 | Log2 Expression Level (gene #55 of Table 8): 7.56
